Literature values, collected in article PMC7904743, “WIDOCK: a reactive docking protocol for virtual screening of covalent inhibitors” (Journal of Computer-Aided Molecular Design, 2021).
Read-outs that look alike come from different tables or passages of the source.

Experiments:
[1] = test system: OTUB2; details: experimental actives if % labeling higher than 50%; cited from earlier work
[2] = test system: NUDT7; details: protein labeling at 200 μM; experimental actives if % labeling higher than 50%; cited from earlier work
[3] = thiol reactivity, cited from earlier work
[4] = natural log of average rate constant k
[5] = natural logarithm of average rate constant

## O=C(CCl)NCc1ccc2c(c1)OCO2 [PCM-0102578, O=C(CCl)NCc1ccc2c(c1)OCO2]
[1]
  OTUB2 % labeling: 16%
[2]
  NUDT7 % labeling: 0%
[3]; [4]
  ln(avg k): -16.736
[3]; [5]
  ln(avg k): -16.736

## Cc1cccc(N(C(=O)CCl)C2C=CS(=O)(=O)C2)c1 (stereo not drawn) [PCM-0102579, Cc1cccc(N(C(=O)CCl)C2C=CS(=O)(=O)C2)c1]
[1]
  OTUB2 % labeling: 0%
[2]
  NUDT7 % labeling: 40%
[3]; [4]
  ln(avg k): -15.240
[3]; [5]
  ln(avg k): -15.240

## N#Cc1c(NC(=O)CCl)sc2c1CCCC2 [PCM-0102580, N#Cc1c(NC(=O)CCl)sc2c1CCCC2]
[1]
  OTUB2 % labeling: 10%
[2]
  NUDT7 % labeling: 72%
[3]; [4]
  ln(avg k): -16.105
[3]; [5]
  ln(avg k): -16.105

## O=C(CCl)Nc1ccc(N2CCOCC2)cc1 [PCM-0102582, O=C(CCl)Nc1ccc(N2CCOCC2)cc1]
[1]
  OTUB2 % labeling: 54%
[2]
  NUDT7 % labeling: 0%
[3]; [4]
  ln(avg k): -15.715
[3]; [5]
  ln(avg k): -15.715

## NC(=O)C1CCN(C(=O)CCl)CC1 [PCM-0102584, NC(=O)C1CCN(C(=O)CCl)CC1]
[1]
  OTUB2 % labeling: 0%
[2]
  NUDT7 % labeling: 0%
[3]; [4]
  ln(avg k): -15.701
[3]; [5]
  ln(avg k): -15.701

## O=C(CCl)Nc1cc2c(cc1Cl)OCCO2 [PCM-0102585, O=C(CCl)Nc1cc2c(cc1Cl)OCCO2]
[1]
  OTUB2 % labeling: 0%
[2]
  NUDT7 % labeling: 12%
[3]; [4]
  ln(avg k): -16.394
[3]; [5]
  ln(avg k): -16.394

## Cc1n[nH]c(C)c1NC(=O)CCl [PCM-0102588, Cc1n[nH]c(C)c1NC(=O)CCl]
[1]
  OTUB2 % labeling: 0%
[2]
  NUDT7 % labeling: 0%
[3]; [4]
  ln(avg k): -16.991
[3]; [5]
  ln(avg k): -16.991

## COC(=O)c1ccccc1N(C)C(=O)CCl [PCM-0102589, COC(=O)c1ccccc1N(C)C(=O)CCl]
[1]
  OTUB2 % labeling: 0%
[2]
  NUDT7 % labeling: 15%
[3]; [4]
  ln(avg k): -16.323
[3]; [5]
  ln(avg k): -16.323

## O=C(CCl)Nc1cc(C(=O)O)ccc1Cl [PCM-0102590, O=C(CCl)Nc1cc(C(=O)O)ccc1Cl]
[1]
  OTUB2 % labeling: 0%
[2]
  NUDT7 % labeling: 0%
[3]; [4]
  ln(avg k): -17.114
[3]; [5]
  ln(avg k): -17.114

## CN(Cc1ccccc1Br)C(=O)CCl [PCM-0102592, CN(Cc1ccccc1Br)C(=O)CCl]
[1]
  OTUB2 % labeling: 12%
[2]
  NUDT7 % labeling: 14%
[3]; [4]
  ln(avg k): -16.295
[3]; [5]
  ln(avg k): -16.295

## CCN(C(=O)CCl)C1CC1 [PCM-0102594, CCN(C(=O)CCl)C1CC1]
[1]
  OTUB2 % labeling: 0%
[2]
  NUDT7 % labeling: 0%
[3]; [4]
  ln(avg k): -17.070
[3]; [5]
  ln(avg k): -17.070

## O=C(CCl)NCC1CCOC1 (stereo not drawn) [PCM-0102596, O=C(CCl)NCC1CCOC1]
[1]
  OTUB2 % labeling: 13%
[2]
  NUDT7 % labeling: 0%
[3]; [4]
  ln(avg k): -16.248
[3]; [5]
  ln(avg k): -16.248

## CC(NC(=O)CCl)C(=O)N1CCCCC1 (stereo not drawn) [PCM-0102598, CC(NC(=O)CCl)C(=O)N1CCCCC1]
[1]
  OTUB2 % labeling: 0%
[2]
  NUDT7 % labeling: 0%
[3]; [4]
  ln(avg k): -16.794
[3]; [5]
  ln(avg k): -16.794

## O=C(CCl)Nc1ccc(N2CCCCC2)cc1 [PCM-0102612, O=C(CCl)Nc1ccc(N2CCCCC2)cc1]
[1]
  OTUB2 % labeling: 37%
[2]
  NUDT7 % labeling: 0%
[3]; [4]
  ln(avg k): -16.206
[3]; [5]
  ln(avg k): -16.206

## O=C(CCl)NC(=O)Nc1ccc2c(c1)OCCO2 [PCM-0102614, O=C(CCl)NC(=O)Nc1ccc2c(c1)OCCO2]
[1]
  OTUB2 % labeling: 27%
[2]
  NUDT7 % labeling: 23%
[3]; [4]
  ln(avg k): -16.380
[3]; [5]
  ln(avg k): -16.380

## O=C(CCl)N1CCOC(c2ccc(F)cc2)C1 (stereo not drawn) [PCM-0102615, O=C(CCl)N1CCOC(c2ccc(F)cc2)C1]
[1]
  OTUB2 % labeling: 0%
[2]
  NUDT7 % labeling: 0%
[3]; [4]
  ln(avg k): -15.513
[3]; [5]
  ln(avg k): -15.513

## CC1CCCC(C)N1C(=O)CCl (stereo not drawn) [PCM-0102616, CC1CCCC(C)N1C(=O)CCl]
[1]
  OTUB2 % labeling: 0%
[2]
  NUDT7 % labeling: 0%
[3]; [4]
  ln(avg k): -15.945
[3]; [5]
  ln(avg k): -15.945

## CCc1cccc(C)c1NC(=O)CCl [PCM-0102618, CCc1cccc(C)c1NC(=O)CCl]
[1]
  OTUB2 % labeling: 0%
[2]
  NUDT7 % labeling: 11%
[3]; [4]
  ln(avg k): -17.017
[3]; [5]
  ln(avg k): -17.017

## O=C(CCl)NC1CCN(C(=O)c2ccco2)CC1 [PCM-0102619, O=C(CCl)NC1CCN(C(=O)c2ccco2)CC1]
[1]
  OTUB2 % labeling: 10%
[2]
  NUDT7 % labeling: 0%
[3]; [4]
  ln(avg k): -16.352
[3]; [5]
  ln(avg k): -16.352

## CC(C)(C)c1ccc(NC(=O)CCl)cc1 [PCM-0102622, CC(C)(C)c1ccc(NC(=O)CCl)cc1]
[1]
  OTUB2 % labeling: 32%
[2]
  NUDT7 % labeling: 0%
[3]; [4]
  ln(avg k): -15.995
[3]; [5]
  ln(avg k): -15.995

## Cc1ccc(NC(=O)NC(=O)CCl)cc1 [PCM-0102623, Cc1ccc(NC(=O)NC(=O)CCl)cc1]
[1]
  OTUB2 % labeling: 0%
[2]
  NUDT7 % labeling: 11%
[3]; [4]
  ln(avg k): -16.273
[3]; [5]
  ln(avg k): -16.273
